We go through 6 compounds from ChEMBL document CHEMBL5344406, “1,2,3-Triazole-containing hybrids with potential antibacterial activity against ESKAPE pathogens” (2022).

What all share (format): functional
Experiment [1] has as its system Staphylococcus aureus. Nature of the experiment: Antibacterial activity against methicillin- resistant Staphylococcus aureus assessed as bacterial growth inhibition by dilution method.
The subject of experiment [2] is Staphylococcus aureus. As to the kind of experiment: Potency index, ratio of Linezolid MIC to test compound MIC for antibacterial activity against methicillin- resistant Staphylococcus aureus assessed as bacterial growth inhibition by dilution method.
The test system of experiment [3] is Staphylococcus aureus. As to the kind of experiment: Antibacterial activity against Staphylococcus aureus assessed as bacterial growth inhibition by dilution method.
In experiment [4] the test system is Streptococcus pyogenes. As to the kind of experiment: Antibacterial activity against Streptococcus pyogenes MTCC 442 assessed as bacterial growth inhibition by broth microdilution method. A general note: Broth dilution looks for growth in wells or tubes with falling amounts of substance.
In experiment [5] the test system is Escherichia coli. Nature of the experiment: Antibacterial activity against Escherichia coli MTCC 443 assessed as bacterial growth inhibition by broth microdilution method.
Experiment [6] concerns Pseudomonas aeruginosa. Nature of the experiment: Potency index, ratio of Ciprofloxacin MIC to test compound MIC for antibacterial activity against Pseudomonas aeruginosa MTCC 1688 assessed as bacterial growth inhibition by broth microdilution method.
Experiment [7] deals with Streptococcus pyogenes. Nature of the experiment: Potency index, ratio of Ciprofloxacin MIC to test compound MIC for antibacterial activity against Streptococcus pyogenes MTCC 442 assessed as bacterial growth inhibition by broth microdilution method.
Experiment [8] has as its system Staphylococcus aureus. Nature of the experiment: Potency index, ratio of Ciprofloxacin MIC to test compound MIC for antibacterial activity against Staphylococcus aureus MTCC 96 assessed as bacterial growth inhibition by broth microdilution method.
The test system of experiment [9] is Pseudomonas aeruginosa. As to the kind of experiment: Antibacterial activity against Pseudomonas aeruginosa MTCC 1688 assessed as bacterial growth inhibition by broth microdilution method.
For experiment [10], the system named is Staphylococcus aureus. As to the kind of experiment: Antibacterial activity against Staphylococcus aureus MTCC 96 assessed as bacterial growth inhibition by broth microdilution method.
Experiment [11] has as its system Escherichia coli. As to the kind of experiment: Potency index, ratio of Ciprofloxacin MIC to test compound MIC for antibacterial activity against Escherichia coli MTCC 443 assessed as bacterial growth inhibition by broth microdilution method.
For experiment [12], the system named is Klebsiella pneumoniae. As to the kind of experiment: Antibacterial activity against Klebsiella pneumoniae assessed as bacterial growth inhibition by broth dilution method.
The subject of experiment [13] is Pseudomonas aeruginosa. As to the kind of experiment: Potency index, ratio of Penicillin MIC to test compound MIC for antibacterial activity against Pseudomonas aeruginosa assessed as bacterial growth inhibition by broth dilution method.
For experiment [14], the system named is Pseudomonas aeruginosa. As to the kind of experiment: Antibacterial activity against Pseudomonas aeruginosa assessed as bacterial growth inhibition by broth dilution method.
For experiment [15], the system named is Klebsiella pneumoniae. Nature of the experiment: Potency index, ratio of Penicillin MIC to test compound MIC for antibacterial activity against Klebsiella pneumoniae assessed as bacterial growth inhibition by broth dilution method.
Experiment [16] concerns Klebsiella pneumoniae. As to the kind of experiment: Antibacterial activity against Klebsiella pneumoniae NCDC 138 assessed as bacterial growth inhibition incubated for 24 hrs by serial dilution method.
For experiment [17], the system named is Escherichia coli. As to the kind of experiment: Antibacterial activity against Escherichia coli MTCC 443 assessed as bacterial growth inhibition incubated for 24 hrs by serial dilution method.
Experiment [18] has as its system Staphylococcus aureus. Nature of the experiment: Antibacterial activity against Staphylococcus aureus ATCC 25923 assessed as bacterial growth inhibition incubated for 18 to 20 hrs by broth microdilution method. The note with it: time 18-20 hrs.
Experiment [19] concerns Escherichia coli. As to the kind of experiment: Antibacterial activity against Escherichia coli ATCC 25922 assessed as bacterial growth inhibition incubated for 16 to 20 hrs by CLSI based broth microdilution method. Conditions: time 16-20 hrs.
The subject of experiment [20] is Pseudomonas aeruginosa. As to the kind of experiment: Antibacterial activity against Pseudomonas aeruginosa ATCC 27853 assessed as bacterial growth inhibition incubated for 16 to 20 hrs by CLSI based broth microdilution method. The note with it: time 16-20 hrs.
Experiment [21] has as its system Staphylococcus aureus. As to the kind of experiment: Antibacterial activity against Staphylococcus aureus ATCC 29213 assessed as bacterial growth inhibition incubated for 16 to 20 hrs by CLSI based broth microdilution method. The note with it: time 16-20 hrs.
The subject of experiment [22] is Pseudomonas aeruginosa. Nature of the experiment: Antibacterial activity against Pseudomonas aeruginosa assessed as bacterial growth inhibition by agar well diffusion method. A general note: A growth-free zone around the sample is the usual read-out of agar diffusion tests.
Another experiment relates to Bacillus subtilis. As to the kind of experiment: Antibacterial activity against Bacillus subtilis assessed as bacterial growth inhibition by agar well diffusion method.
Experiment [23] concerns Escherichia coli. As to the kind of experiment: Antibacterial activity against Escherichia coli assessed as bacterial growth inhibition by agar well diffusion method.
In experiment [24] the test system is Staphylococcus aureus. As to the kind of experiment: Antibacterial activity against Staphylococcus aureus assessed as bacterial growth inhibition by agar well diffusion method.

Each structure is given as a SMILES string. Values after ≈ are worked out from the molar mass of the structure shown. Bounds are passed on as bounds.

Regarding `CC(=O)NC[C@H]1CN(c2ccc(-n3cc(-c4ncccn4)nn3)c(F)c2)C(=O)O1`, the MIC (as a rule, the lowest concentration that inhibits growth of the organism) amounted to 0.5 µg/mL (≈ 1.26 µM) in the experiment with Staphylococcus aureus [1] and 2 µg/mL (≈ 5.03 µM) with Staphylococcus aureus [3]. For the same compound, in the experiment on Staphylococcus aureus [2], the Ratio worked out at 4.

In the case of `CN(C)Cc1cn([C@@H]2C(=O)N3[C@@H]2SC(C)(C)[C@@H]3C(=O)O)nn1`, the MIC with Streptococcus pyogenes [4], in the experiment with Escherichia coli [5], with Pseudomonas aeruginosa [9] and in the experiment on Staphylococcus aureus [10] was 0.5 µg/mL (≈ 1.54 µM) throughout. The Ratio in the experiment on Pseudomonas aeruginosa [6], with Streptococcus pyogenes [7], in the experiment on Staphylococcus aureus [8] and in the experiment with Escherichia coli [11] was 2.5 in each case.

Turning to `CC1(C)O[C@@H]2[C@@H](CC[C@]3(COC(C)(C)O3)[C@H]2OCc2cn(-c3c(Cl)cc(Cl)cc3Cl)nn2)O1`, the MIC in the experiment with Klebsiella pneumoniae [12] came out at 9.37 µg/mL (≈ 18.1 µM); with Pseudomonas aeruginosa [14], 1.17 µg/mL (≈ 2.26 µM). Moreover, the Ratio in the experiment on Pseudomonas aeruginosa [13] worked out at 16; in the experiment with Klebsiella pneumoniae [15] it was 4.

For the compound `CC(C)(NS(=O)(=O)c1ccccc1)c1cn(-c2ccc(Br)cc2)nn1`, the results for the MIC in the experiment with Klebsiella pneumoniae [16] and in the experiment on Escherichia coli [17] were 12.5 µg/mL (≈ 29.7 µM) and 25 µg/mL (≈ 59.3 µM), respectively.

For `CC(=O)OC[C@@H]1O[C@H](n2cc(CNC(=O)c3ccc(-c4ccc(Br)cc4)o3)nn2)[C@@H](OC(C)=O)[C@H](OC(C)=O)[C@H]1OC(C)=O`, the MIC in the experiment on Staphylococcus aureus [18], in the experiment with Escherichia coli [19], with Pseudomonas aeruginosa [20] and in the experiment with Staphylococcus aureus [21] was above 250 µg/mL throughout.

In the case of `COc1ccc(-c2cc(-c3cccs3)nc(OCc3cn(CC(=O)Nc4ccc(C(C)=O)cc4)nn3)c2O)cc1`, the MIC in the experiment on Pseudomonas aeruginosa [22], with Bacillus subtilis, in the experiment with Escherichia coli [23] and in the experiment with Staphylococcus aureus [24] was 0.5 µg/mL (≈ 0.9 µM) in each case.
